Data reported in article PMC7400577 (Scientific Reports, 2020).
Numbering of substitutions follows the chain as printed. Where two headings read alike, the source gives them in different places.

Tests used:
hGAT3 L314Q = biological target: T1, hGAT3 L314Q (Homo sapiens, UniProt P48066, L314Q); test: [3H]GABA uptake inhibition at hGAT3 L314Q transiently expressed in tsA201 cells; assay type: cell-based; conditions: 30 nM [3H]GABA, transient expression
T1 construct: expressed in transfected cells; host or cells: tsA201 cells, transient (PolyFect), pcDNA5/FRT vector
T1 sequence (P48066 1-632 L314Q): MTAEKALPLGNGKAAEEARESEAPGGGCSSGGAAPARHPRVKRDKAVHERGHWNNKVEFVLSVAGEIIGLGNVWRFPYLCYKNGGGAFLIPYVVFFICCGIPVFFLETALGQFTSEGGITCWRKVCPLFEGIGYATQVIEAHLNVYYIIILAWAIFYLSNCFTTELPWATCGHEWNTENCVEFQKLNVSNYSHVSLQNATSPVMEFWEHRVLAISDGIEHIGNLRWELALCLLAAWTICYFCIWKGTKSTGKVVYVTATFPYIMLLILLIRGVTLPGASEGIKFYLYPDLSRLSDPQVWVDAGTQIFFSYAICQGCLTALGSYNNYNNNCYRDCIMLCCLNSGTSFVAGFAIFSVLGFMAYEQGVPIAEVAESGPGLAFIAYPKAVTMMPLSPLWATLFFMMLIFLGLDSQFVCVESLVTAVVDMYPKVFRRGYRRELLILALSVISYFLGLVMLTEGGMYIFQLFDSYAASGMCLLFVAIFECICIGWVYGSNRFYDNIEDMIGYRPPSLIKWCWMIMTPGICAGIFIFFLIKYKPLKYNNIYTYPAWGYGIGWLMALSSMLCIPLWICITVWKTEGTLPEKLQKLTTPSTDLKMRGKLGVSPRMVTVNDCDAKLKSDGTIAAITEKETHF

hGAT3 wt = biological target: T2, hGAT3 wt (Homo sapiens, UniProt P48066); test: [3H]GABA uptake inhibition at wt hGAT3 transiently expressed in tsA201 cells; assay type: cell-based; conditions: 30 nM [3H]GABA, transient expression
T2 construct: expressed in transfected cells; host or cells: tsA201 cells, transient (PolyFect), pcDNA5/FRT vector
T2 sequence (P48066 1-632): T1 sequence (P48066 1-632 L314Q) with Q314L

BGT1 = conditions: competitive BGT1 inhibitor; cited from earlier work

IC50 (hGAT3 L314Q; read-out: IC50 GAT3 L314Q) [µM]	IC50 (hGAT3 L314Q; read-out: pIC50 ± S.E.M. GAT3 L314Q (converted)) [µM]	IC50 (hGAT3 wt; read-out: IC50 GAT3 wt) [µM]	IC50 (hGAT3 wt; read-out: pIC50 ± S.E.M. GAT3 wt (converted)) [µM]	Compound	IC50 (BGT1) [µM]
5.2	5.13	8.2	7.94	NCCCC(=O)O [GABA, γ-Aminobutyric acid, reference compound]	–
–	–	–	–	N[C@@]12CC[C@H](C(=O)O)[C@@H]1C2 [compound 1]	0.59
